Reference: ChEMBL document CHEMBL1201862, “PubChem BioAssay data set” (2004)
The source made the active and inactive calls.

Tests used:
[1] = target: T1, RNA-binding protein pos-1 (Caenorhabditis elegans, UniProt G5EF15); test: inhibitors of POS-1/mex-3 RNA binding, dose response, biochemical, fluorescence polarization (AID 1964);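 also: purified POS-1 fused to maltose binding protein made in E. coli; potency of compounds blocking POS-1 binding to fluorescent RNA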
T1 sequence (G5EF15 whole entry): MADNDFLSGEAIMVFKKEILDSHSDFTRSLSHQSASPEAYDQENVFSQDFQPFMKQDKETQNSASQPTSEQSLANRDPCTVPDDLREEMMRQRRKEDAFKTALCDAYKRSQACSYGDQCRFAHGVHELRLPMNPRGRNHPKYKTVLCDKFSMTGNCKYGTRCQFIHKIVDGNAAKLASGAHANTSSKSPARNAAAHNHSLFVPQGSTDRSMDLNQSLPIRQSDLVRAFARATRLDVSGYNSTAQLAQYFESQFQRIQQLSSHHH

[2] = target: T2, Zinc finger protein mex-5 (Caenorhabditis elegans, UniProt Q9XUB2); test: MEX-5/TCR-2 RNA interaction inhibitors, dose response, biochemical, C. elegans, fluorescence polarization (AID 1960)
T2 sequence (Q9XUB2 whole entry): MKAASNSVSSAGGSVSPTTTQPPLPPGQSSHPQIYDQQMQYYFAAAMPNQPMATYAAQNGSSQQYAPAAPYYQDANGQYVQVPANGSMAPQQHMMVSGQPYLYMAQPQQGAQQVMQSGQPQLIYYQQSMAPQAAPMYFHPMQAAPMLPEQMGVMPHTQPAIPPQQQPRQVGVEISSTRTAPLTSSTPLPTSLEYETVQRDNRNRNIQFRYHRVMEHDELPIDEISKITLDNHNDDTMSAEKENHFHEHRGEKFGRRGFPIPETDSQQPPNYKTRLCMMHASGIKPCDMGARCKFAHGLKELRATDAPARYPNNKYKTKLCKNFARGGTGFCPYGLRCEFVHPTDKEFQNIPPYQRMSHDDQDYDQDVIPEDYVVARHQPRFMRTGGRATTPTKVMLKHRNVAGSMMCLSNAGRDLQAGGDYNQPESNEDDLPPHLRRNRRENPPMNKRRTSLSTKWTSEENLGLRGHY

[3] = target: Protein Rev (Human immunodeficiency virus type 1 group M subtype B (isolate HXB2)(HIV-1), UniProt P04618); test: inhibitors of Rev binding to RRE RNA, dose response, biochemical, fluorescence polarization, HIV-1 (AID 434976); parameters: species or system Human immunodeficiency virus 1
Protein Rev, sequence (P04618 whole entry): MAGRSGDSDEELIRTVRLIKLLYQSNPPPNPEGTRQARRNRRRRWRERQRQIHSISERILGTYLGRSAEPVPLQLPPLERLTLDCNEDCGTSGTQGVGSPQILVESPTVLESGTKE

[4] = target: Female germline-specific tumor suppressor gld-1 (Caenorhabditis elegans, UniProt Q17339); test: inhibitors of GLD-1 binding to TGE RNA, dose response, biochemical, fluorescence polarization, C. elegans (AID 2802);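 also: fluorescence polarization of labeled TGE RNA bound by purified gld-1 protein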
Female germline-specific tumor suppressor gld-1, sequence (Q17339 whole entry): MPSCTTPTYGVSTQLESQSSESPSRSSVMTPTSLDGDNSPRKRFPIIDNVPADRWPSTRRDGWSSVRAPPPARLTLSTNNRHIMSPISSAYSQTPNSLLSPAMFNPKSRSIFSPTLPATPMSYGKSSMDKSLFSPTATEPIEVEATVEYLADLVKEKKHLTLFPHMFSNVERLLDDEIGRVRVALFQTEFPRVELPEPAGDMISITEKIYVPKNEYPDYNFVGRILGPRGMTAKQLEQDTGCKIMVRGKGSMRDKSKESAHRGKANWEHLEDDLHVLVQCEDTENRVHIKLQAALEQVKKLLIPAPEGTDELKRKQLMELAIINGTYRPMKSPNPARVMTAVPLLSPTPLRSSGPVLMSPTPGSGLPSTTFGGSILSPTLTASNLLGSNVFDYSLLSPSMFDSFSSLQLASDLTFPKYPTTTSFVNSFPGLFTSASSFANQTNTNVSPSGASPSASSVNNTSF

[5] = target: T3, Kappa-type opioid receptor (Homo sapiens, UniProt P41145); test: KOR antagonists by imaging, SAR follow-up, image-based (AID 2348); assay type: functional
T3 sequence (P41145 whole entry): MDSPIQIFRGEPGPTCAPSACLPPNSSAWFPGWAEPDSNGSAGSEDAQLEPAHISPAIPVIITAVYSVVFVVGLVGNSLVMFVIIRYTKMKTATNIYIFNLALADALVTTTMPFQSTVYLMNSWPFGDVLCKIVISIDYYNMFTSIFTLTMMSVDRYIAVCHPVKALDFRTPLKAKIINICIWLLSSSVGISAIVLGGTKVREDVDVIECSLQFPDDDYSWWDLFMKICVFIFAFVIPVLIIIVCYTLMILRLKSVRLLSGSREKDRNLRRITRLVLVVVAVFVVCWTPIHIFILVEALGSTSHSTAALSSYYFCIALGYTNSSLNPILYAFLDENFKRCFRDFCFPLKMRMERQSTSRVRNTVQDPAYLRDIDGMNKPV

[6] = target: T4, Mu-type opioid receptor (Homo sapiens, UniProt P35372); test: MOR antagonists, SAR follow-up, image-based (AID 2420); assay type: functional;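 also: compounds added before stimulation of receptor with agonist DAMGO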
T4 sequence (P35372 whole entry): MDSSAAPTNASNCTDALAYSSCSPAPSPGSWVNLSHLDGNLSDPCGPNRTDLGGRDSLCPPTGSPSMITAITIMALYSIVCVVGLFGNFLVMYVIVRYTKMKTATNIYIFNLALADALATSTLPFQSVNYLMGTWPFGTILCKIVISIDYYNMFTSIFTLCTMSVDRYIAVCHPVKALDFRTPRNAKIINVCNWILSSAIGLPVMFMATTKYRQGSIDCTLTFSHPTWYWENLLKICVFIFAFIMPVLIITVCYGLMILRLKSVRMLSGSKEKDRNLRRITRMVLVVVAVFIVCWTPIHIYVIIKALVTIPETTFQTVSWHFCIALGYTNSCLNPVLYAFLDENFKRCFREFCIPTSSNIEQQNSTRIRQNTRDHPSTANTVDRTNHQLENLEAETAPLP

[7] = target: T5, Delta-type opioid receptor (Homo sapiens, UniProt P41143); test: DOR agonists, SAR follow-up, image-based (AID 2370); assay type: functional
T5 sequence (P41143 whole entry): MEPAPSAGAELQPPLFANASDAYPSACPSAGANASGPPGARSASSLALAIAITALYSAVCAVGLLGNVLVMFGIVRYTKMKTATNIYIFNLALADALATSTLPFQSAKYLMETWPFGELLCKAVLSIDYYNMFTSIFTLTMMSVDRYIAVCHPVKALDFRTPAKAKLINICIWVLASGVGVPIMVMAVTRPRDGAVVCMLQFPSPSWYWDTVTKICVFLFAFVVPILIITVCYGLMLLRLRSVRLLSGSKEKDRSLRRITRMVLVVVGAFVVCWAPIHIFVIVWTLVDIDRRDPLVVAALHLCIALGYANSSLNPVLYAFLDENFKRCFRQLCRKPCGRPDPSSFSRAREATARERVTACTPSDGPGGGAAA

[8] = target: T3, Kappa-type opioid receptor; test: SAR analysis of small molecule agonists of the kappa opioid receptor via a luminescent beta-arrestin assay. [Related pubchem assays (depositor defined):AID1777, AID1786, AID1966, AID2133, AID2136, AID2348, AID2352, AID2357, AID2359, AID2370, AID2420, AID2478, AID2491, AID2492, AID2493, AID2497, AID2498, AID2500, AID449737, AID488822, AID488842]; assay type: functional
[9] = target: T5, Delta-type opioid receptor; test: DOR antagonists, SAR follow-up, image-based (AID 2357); assay type: functional
[10] = target: T3, Kappa-type opioid receptor; test: KOR agonist analogs, imaging readout, SAR follow-up, image-based (AID 2359); assay type: functional
[11] = target: T4, Mu-type opioid receptor; test: MOR agonists by imaging, SAR follow-up, image-based (AID 2352); assay type: functional
[12] = target: X-box-binding protein 1 (Homo sapiens, UniProt P17861); assay type: functional, Cricetulus griseus;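 also: confirmatory dose-response counter-screen serving a CHOP assay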
X-box-binding protein 1, sequence (P17861 whole entry): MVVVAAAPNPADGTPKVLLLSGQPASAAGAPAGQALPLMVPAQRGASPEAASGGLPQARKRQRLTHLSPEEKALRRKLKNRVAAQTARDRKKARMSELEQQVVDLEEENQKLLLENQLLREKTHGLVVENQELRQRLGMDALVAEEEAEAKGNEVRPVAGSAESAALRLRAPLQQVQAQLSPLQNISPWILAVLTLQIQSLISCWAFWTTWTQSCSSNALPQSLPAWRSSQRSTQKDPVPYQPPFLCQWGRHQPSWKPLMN

[13] = target: T3, Kappa-type opioid receptor; test: kappa opioid receptor blockers, cell-based, luminescence, beta-arrestin, SAR follow-up (AID 2285); assay type: functional
[14] = Vero E6 cell cytotoxicity, dose response, cytotoxicity control for non-replicating M. tuberculosis project, secondary assay (AID 492998); assay type: functional, VeroE6; conditions: Vero C1008
[15] = target: Nucleotide-binding oligomerization domain-containing protein 2 (Homo sapiens, UniProt Q9HC29); test: PubChem AID 2334; assay type: functional
Nucleotide-binding oligomerization domain-containing protein 2, sequence (Q9HC29 whole entry, the tested form may be a part): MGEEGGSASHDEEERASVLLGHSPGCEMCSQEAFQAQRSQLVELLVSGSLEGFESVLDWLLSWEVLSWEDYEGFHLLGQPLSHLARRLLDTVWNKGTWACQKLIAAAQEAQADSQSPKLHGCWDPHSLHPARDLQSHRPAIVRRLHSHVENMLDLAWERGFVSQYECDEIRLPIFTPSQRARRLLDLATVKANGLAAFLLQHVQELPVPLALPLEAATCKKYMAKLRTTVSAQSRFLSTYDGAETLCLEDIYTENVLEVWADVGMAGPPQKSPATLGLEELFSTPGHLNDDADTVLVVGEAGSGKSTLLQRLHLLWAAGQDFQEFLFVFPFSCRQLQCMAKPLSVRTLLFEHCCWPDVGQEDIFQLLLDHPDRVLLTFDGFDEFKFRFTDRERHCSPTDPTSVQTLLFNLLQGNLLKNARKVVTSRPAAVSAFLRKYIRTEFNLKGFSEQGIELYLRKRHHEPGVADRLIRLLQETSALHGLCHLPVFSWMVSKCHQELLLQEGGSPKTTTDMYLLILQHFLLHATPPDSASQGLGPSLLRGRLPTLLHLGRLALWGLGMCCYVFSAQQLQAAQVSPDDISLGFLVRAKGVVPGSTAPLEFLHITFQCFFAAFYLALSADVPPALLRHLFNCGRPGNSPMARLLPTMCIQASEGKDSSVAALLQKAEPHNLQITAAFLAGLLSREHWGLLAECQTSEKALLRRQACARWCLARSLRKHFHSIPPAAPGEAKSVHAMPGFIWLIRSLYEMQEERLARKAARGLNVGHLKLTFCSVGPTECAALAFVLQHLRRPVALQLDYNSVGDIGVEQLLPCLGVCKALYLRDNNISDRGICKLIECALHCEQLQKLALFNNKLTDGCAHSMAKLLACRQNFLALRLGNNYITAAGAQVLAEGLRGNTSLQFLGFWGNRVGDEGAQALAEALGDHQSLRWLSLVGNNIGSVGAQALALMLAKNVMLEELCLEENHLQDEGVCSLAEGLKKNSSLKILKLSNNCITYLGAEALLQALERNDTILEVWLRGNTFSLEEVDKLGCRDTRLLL

[16] = cells; assay type: functional
[17] = THP-1 cell cytotoxicity, dose response, cytotoxicity control for non-replicating M. tuberculosis project (AID 489025); assay type: functional
[18] = HepG2 cell cytotoxicity, dose response, cytotoxicity control for non-replicating M. tuberculosis project (AID 489018); assay type: functional; conditions: Mycobacterium tuberculosis
[19] = system: HEK293; test: cells; conditions: Homo sapiens;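 also: cells exposed to compound for 14 hours overnight before viability readout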
[20] = target: T6, Nucleotide-binding oligomerization domain-containing protein 1 (Homo sapiens, UniProt Q9Y239); test: NOD1 signaling inhibitors, SAR follow-up, revised (AID 2333); assay type: functional
T6 sequence (Q9Y239 whole entry): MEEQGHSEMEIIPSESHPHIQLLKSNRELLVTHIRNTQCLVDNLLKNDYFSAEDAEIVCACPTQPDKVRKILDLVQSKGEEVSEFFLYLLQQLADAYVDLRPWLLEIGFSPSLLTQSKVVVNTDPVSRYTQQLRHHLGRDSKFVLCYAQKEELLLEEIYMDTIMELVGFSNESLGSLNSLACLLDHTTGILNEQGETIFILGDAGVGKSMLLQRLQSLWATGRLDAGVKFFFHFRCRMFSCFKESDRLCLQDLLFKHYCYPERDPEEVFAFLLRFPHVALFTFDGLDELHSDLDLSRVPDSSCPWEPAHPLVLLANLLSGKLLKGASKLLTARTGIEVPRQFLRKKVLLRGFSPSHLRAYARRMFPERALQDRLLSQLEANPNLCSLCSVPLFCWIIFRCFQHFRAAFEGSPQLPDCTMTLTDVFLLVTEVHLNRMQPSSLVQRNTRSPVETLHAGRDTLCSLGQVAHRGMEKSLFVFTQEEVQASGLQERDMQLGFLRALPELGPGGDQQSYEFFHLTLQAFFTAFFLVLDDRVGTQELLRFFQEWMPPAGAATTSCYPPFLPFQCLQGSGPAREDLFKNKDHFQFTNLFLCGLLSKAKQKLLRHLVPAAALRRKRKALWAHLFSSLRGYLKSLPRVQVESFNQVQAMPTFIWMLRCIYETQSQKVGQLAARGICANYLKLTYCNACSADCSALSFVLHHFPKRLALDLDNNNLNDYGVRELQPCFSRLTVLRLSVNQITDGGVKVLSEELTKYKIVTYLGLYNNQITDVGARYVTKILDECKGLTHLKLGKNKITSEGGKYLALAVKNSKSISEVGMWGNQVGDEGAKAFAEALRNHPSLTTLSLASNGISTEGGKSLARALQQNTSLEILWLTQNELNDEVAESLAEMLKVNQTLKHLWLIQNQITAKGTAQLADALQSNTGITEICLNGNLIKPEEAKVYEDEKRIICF

[21] = target: Tumor necrosis factor (Homo sapiens, UniProt P01375); test: TNFa-triggered NF-kB activation inhibitors, SAR follow-up, cell-based, revised (AID 2337); assay type: functional
Tumor necrosis factor, sequence (P01375 whole entry): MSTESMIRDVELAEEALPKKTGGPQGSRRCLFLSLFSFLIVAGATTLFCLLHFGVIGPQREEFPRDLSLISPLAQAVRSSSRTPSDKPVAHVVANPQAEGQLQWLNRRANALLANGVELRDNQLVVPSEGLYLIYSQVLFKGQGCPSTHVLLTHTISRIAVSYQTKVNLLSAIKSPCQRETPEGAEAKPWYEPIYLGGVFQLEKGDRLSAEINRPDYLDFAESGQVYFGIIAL

[22] = target: Neurotensin receptor type 1 (Homo sapiens, UniProt P30989); assay type: functional;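 also: Image-based confirmatory dose-response assay measuring agonist activity at NTR1; NTR1-expressing U2OS osteosarcoma cells imaged for beta-arrestin GFP spot formation; agonist potency where compounds increase beta-arrestin recruitment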
Neurotensin receptor type 1, sequence (P30989 whole entry): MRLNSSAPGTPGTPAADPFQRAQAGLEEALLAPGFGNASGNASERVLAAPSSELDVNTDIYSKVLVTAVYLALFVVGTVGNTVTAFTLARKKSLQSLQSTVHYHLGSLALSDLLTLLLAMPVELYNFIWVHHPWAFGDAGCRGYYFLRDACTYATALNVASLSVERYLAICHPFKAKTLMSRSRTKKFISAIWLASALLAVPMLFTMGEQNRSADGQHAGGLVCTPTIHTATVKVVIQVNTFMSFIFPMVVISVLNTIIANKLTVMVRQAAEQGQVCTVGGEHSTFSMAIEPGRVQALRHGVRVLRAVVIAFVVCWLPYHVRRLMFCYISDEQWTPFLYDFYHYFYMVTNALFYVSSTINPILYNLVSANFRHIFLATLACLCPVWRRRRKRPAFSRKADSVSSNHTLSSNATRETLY

[23] = Shn3 3'UTR reporter inhibitors, dose response, cell-based, Clone20 osteoblasts, firefly luciferase, cherry-picked (AID 624132); assay type: functional;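 also: firefly luciferase luminescence from reporter carrying the Shn3 3'UTR in osteoblasts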

SMILES: O=C(CN1C(=O)C2CC=C(Cl)CC2C1=O)NCc1ccccc1 (centres undefined)
- EC50 [1]: 34.1 µM (active)
- EC50 [2]: 24.7 µM (active)
- IC50 [3]: 25.8 µM (not active)
- IC50 [4]: 7.72 µM (active)

SMILES: CCCN(Cc1cc2ccc(C)cc2[nH]c1=O)C(=O)c1ccccn1
- IC50 [5]: > 32 µM (inactive)
- IC50 [6]: > 32 µM (inactive)
- EC50 [7]: > 32 µM (inactive)
- EC50 [8]: > 10 µM (inactive)
- IC50 [9]: > 32 µM (inactive)
- EC50 [10]: > 32 µM (inactive)
- EC50 [11]: > 32 µM (inactive)

SMILES: Cc1sc2ncnc(N3CCCCC3C)c2c1C (centres undefined)
- Absolute IC50 (XBP1) [12]: 10 µM

SMILES: O=C(c1ccc(CNS(=O)(=O)c2ccccc2)cc1)N1CCN(Cc2ccccc2)CC1
- IC50 [5]: > 32 µM (inactive)
- IC50 [6]: > 32 µM (inactive)
- EC50 [7]: > 32 µM (inactive)
- IC50 [9]: > 32 µM (inactive)
- EC50 [10]: > 32 µM (inactive)
- IC50 [13]: > 10 µM (inactive)
- EC50 [11]: > 32 µM (inactive)

SMILES: CC(=O)Nc1nc2ccccc2n1Cc1ccc(Cl)cc1
- CC50 [14]: 12.9 µM (active)
- IC50 [15]: > 20 µM (inactive)
- IC50 [16]: 1.02 µM (active)
- CC50 [17]: 30.9 µM (active)
- CC50 [18]: > 20 µM (active)
- IC50 [19]: > 20 µM (inactive)
- IC50 [20]: 18.8 µM (active)
- IC50 [21]: > 20 µM (inactive)

SMILES: CCOc1cc(/C=C2\C(=O)ON=C2C)ccc1OCc1ccccc1
- EC50 [22]: 13.9 µM (active)
- AC50 [23]: 10.4 µM (active)
